Source: patent publication US20070031872A1, “A141S and G399S mutation in the Omi/HtrA2 protein in Parkinson's disease” (priority 2004, published 2007)
Peptide text beside a SMILES is read from it. * marks the point of attachment. Cbz = O=C(OCc1ccccc1)*

Columns and labels:
Type in all cases: cell-based
[1] = tested on: HEK293 cells which expressed the exon 1, i.e. G421T, mutation (A141S) of Omi/HtrA2; experiment: Cytotoxicity test (LDH release) using MG132; conditions: 3.0 μM MG132, 24 hours; A141S cells vs wild-type HEK293 cells; FIG. 8
Method: (§1) In order to analyze the pathogenetic relevance of the two mutations found in the Omi/HtrA2 gene, the cytotoxicity test was used to investigate whether cells which express the correspondingly genetically modified Omi/HtrA2 protein are more sensitive to cytotoxins, i.e. undergo apoptosis more frequently with corresponding exposure.
(§2) This test was carried out using the cytotoxicity detection kit (LDH) supplied by Roche. The measure of apoptosis used in this case is the lactate dehydrogenase (LDH) released from the cytosol of the apoptotic cells into the surrounding medium after contact with the toxins. This LDH in turn is determined via conversion of a tetrazolium salt into formazan, which can be measured through a change in color from yellow (tetrazolium salt) to red (formazan) using an ELISA reader at a wavelength of 490 nm. The absorption at 650 nm is measured as reference comparison. […]
(§3) In order to detect the total amount of LDH, which is related to the total number of cells per well, then 50 μl of 10% Triton X-100 solution were pipetted into each well in order to lyse the cells which were still alive. […] 100 μl of LDH assay medium were then put in each well to be measured of the 96-well plate and incubated at room temperature for 20 minutes.
(§4) After this incubation time had elapsed, the reaction was stopped by adding 50 μl of 1 N HCl (Sigma) and measured using the ELISA reader. […]

[2] = tested on: SH-SY5Y cells which stably express mutated (S141 or S399) Omi/HtrA2; experiment: Mitochondrion function test: mitochondrial membrane potential by JC-1 FACS analysis; conditions: 0.5 μM staurosporin, 4 hours, FIG. 9
Method: The mitochondrial membrane potential was measured by FACS analysis (flow cytometer) using JC-1, as marker of mitochondrial homeostasis in SH-SY5Y cells which stably express the wild-type or mutated (S141 or S399) Omi/HtrA2.
JC-1 is a green fluorescent dye which can be employed to measure the mitochondrial membrane potential. It has the property of diffusing through cellular membranes and is moreover in the form of a monomer which fluoresces green on excitation with a 488 nm laser. In intact mitochondria there is accumulation of the dye owing to the mitochondrial membrane potential, and thus JC-1 aggregates form. The aggregate now re-emits in a red fluorescent wavelength the excitation light and can thus be clearly distinguished both under a microscope and in a flow cytometer from the green fluorescent monomers. […]
In order to differentiate the cell population between green and red fluorescence and to make the adjustment in the flow cytometer, cells without JC-1, with JC-1 and cells with JC-1 treated with CCCP were used. […] It was thus possible after the staining readily to excite only the green fluorescence of the JC-1 monomers, owing to treatment with CCCP. After adjustment of the assay in the flow cytometer, the samples were then measured and evaluated. […]

[3] = tested on: HEK293 cells which expressed the exon 7, i.e. the G1195A, mutation (G399S) of Omi/HtrA2; experiment: Cytotoxicity test (LDH release) using staurosporin; conditions: 0.5 μM staurosporin, 6 hours; G399S cells vs wild-type HEK293 cells; FIG. 7
Method: as §1, §2, §3, §4

SMILES	sensitivity to MG132 relative to wild-type HEK293 cells (LDH release, proportion of dead cells) [1]	decline in the mitochondrial membrane potential (ΔΨm loss) compared with wild-type cells ([2]; Omi/HtrA2 S141 cells)	decline in the mitochondrial membrane potential (ΔΨm loss) compared with wild-type cells ([2]; Omi/HtrA2 S399 cells)	sensitivity to staurosporin relative to wild-type HEK293 cells (LDH release, proportion of dead cells) [3]
CC(C)C[C@@H](C=O)NC(=O)[C@H](CC(C)C)NC(=O)[C@H](CC(C)C)NC(=O)OCc1ccccc1 [MG132] (Cbz-Leu-Leu-Leu-aldehyde)	approximately 1.4 times	–	–	–
CN[C@@H]1C[C@H]2O[C@@](C)([C@@H]1OC)n1c3ccccc3c3c4c(c5c6ccccc6n2c5c31)C(=O)NC4 [staurosporin]	–	distinct decline in the mitochondrial membrane potential	distinct decline in the mitochondrial membrane potential	more than five times more sensitive
